{
  "source": "ChEMBL document CHEMBL5550204",
  "about": "“Discovery of ZJCK-6-46: A Potent, Selective, and Orally Available Dual-Specificity Tyrosine Phosphorylation-Regulated Kinase 1A Inhibitor for the Treatment of Alzheimer's Disease” (J Med Chem, 2024)",
  "key": {"[1]": {"target": "CYP2E1 (Homo sapiens, UniProt P05181)", "sequence (P05181 whole entry)": "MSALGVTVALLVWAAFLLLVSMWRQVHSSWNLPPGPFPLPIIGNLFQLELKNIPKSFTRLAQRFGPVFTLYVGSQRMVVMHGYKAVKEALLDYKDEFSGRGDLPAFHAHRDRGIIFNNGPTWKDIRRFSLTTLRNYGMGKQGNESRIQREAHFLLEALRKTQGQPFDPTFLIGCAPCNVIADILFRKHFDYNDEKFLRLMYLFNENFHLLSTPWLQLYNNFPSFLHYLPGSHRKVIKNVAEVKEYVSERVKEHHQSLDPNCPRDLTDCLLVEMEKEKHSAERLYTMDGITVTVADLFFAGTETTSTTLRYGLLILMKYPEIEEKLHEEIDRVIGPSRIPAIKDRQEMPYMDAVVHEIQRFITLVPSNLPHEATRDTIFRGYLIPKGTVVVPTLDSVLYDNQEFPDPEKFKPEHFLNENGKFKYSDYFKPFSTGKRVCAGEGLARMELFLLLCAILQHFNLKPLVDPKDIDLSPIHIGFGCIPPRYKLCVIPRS", "assay": "Inhibition of CYP2E1 in human liver microsomes using chlorzoxazone as substrate at 10 uM preincubated for 10 mins followed by NADPH addition and measured after 40 mins by LC-MS/MS analysis relative to control", "settings": "probe chlorzoxazone"}, "[2]": {"assay": "Drug concentration in Sprague-Dawley rat brain at 10 mg/kg,po measured after 4 hrs by LC-MS/MS analysis", "format": "ADME, organism-based", "settings": "read-out: Ct"}, "[3]": {"assay": "Drug concentration in Sprague-Dawley rat plasma at 10 mg/kg,po measured after 6 hrs by LC-MS/MS analysis", "format": "ADME, organism-based"}, "[4]": {"assay": "Acute toxicity in C57BL/6 mouse assessed as animal death at 500 mg/kg,po observed after 14 days", "format": "organism-based", "settings": "in vivo, 336 h, time 14 day"}, "[5]": {"assay": "Toxicity in okadaic acid-induced cognitive impairment C57BL/6 mouse assessed as change in serum GSH level at 10 to 30 mg/kg,po once daily for 2 weeks", "format": "organism-based", "settings": "in vivo, 336 h, dose 10-30 mg/kg"}, "[6]": {"assay": "Apparent volume of distribution in Sprague-Dawley rat at 2 mg/kg,iv measured upto 24 hrs by LC-MS/MS analysis", "format": "ADME, organism-based", "settings": "in vivo, read-out: Vz"}, "[7]": {"tested_on": "Mus musculus", "assay": "Antialzheimer activity in okadaic acid-induced cognitive impairment C57BL/6 mouse assessed as decrease in escape latency at 10 to 30 mg/kg,po once daily for 2 weeks by Morris water maze test", "format": "functional, organism-based", "settings": "dose 10-30 mg/kg"}, "[8]": {"target": "Dual specificity protein kinase CLK3 (Homo sapiens, UniProt P49761)", "sequence (P49761 whole entry)": "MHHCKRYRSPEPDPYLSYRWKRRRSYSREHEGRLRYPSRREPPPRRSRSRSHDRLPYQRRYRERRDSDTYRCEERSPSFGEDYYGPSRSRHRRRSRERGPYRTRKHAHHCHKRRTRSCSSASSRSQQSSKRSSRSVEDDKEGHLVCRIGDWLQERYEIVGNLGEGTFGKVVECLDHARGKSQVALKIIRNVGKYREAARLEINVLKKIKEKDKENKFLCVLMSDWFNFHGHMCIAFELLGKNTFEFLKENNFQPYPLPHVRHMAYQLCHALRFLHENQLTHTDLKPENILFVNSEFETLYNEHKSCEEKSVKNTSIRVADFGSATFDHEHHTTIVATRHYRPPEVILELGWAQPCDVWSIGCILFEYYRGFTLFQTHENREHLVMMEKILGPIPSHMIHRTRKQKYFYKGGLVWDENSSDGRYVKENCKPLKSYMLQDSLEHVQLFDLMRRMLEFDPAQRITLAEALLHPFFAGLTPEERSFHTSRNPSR", "assay": "Inhibition of CLK3 (unknown origin) preincubated with enzyme for 10 mins followed by substrate and ATP addition measured after 60 mins by ADP-Glo reagent based assay"}, "[9]": {"assay": "Acute toxicity in C57BL/6 mouse assessed as change in lung weight at 500 mg/kg,po observed after 14 days", "format": "organism-based", "settings": "in vivo, 336 h, time 14 day"}, "[10]": {"assay": "Acute toxicity in C57BL/6 mouse assessed as histopathological change in lung at 500 mg/kg,po observed after 14 days by hematoxylin-eosin staining based analysis", "format": "organism-based", "settings": "in vivo, 336 h, time 14 day"}, "[11]": {"target": "Dual specificity protein kinase CLK1 (Homo sapiens, UniProt P49759)", "sequence (P49759 whole entry)": "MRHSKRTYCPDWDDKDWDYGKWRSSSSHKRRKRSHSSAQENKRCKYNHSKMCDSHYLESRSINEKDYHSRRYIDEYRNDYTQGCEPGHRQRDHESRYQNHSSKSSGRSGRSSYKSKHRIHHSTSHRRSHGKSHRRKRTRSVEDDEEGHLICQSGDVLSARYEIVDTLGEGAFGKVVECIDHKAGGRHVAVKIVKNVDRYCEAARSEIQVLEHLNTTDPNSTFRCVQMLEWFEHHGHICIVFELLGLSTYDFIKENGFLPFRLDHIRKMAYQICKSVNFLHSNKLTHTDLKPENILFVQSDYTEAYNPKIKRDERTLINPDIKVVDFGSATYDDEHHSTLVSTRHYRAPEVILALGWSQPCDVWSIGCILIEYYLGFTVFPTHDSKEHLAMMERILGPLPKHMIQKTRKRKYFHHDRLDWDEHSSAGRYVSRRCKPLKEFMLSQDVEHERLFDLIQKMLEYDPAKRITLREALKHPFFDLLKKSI", "assay": "Inhibition of CLK1 (unknown origin) preincubated with enzyme for 10 mins followed by substrate and ATP addition measured after 60 mins by ADP-Glo reagent based assay"}, "[12]": {"tested_on": "SH-SY5Y", "assay": "Cytotoxicity against human SH-SY5Y cells expressing human Tau P301L mutant at 20 uM incubated for 24 hrs by MTT assay", "format": "functional, cell-based"}, "[13]": {"assay": "Toxicity in okadaic acid-induced cognitive impairment C57BL/6 mouse assessed as change in body weight at 10 to 30 mg/kg,po once daily for 2 weeks", "format": "organism-based", "settings": "in vivo, 336 h, dose 10-30 mg/kg"}, "[14]": {"assay": "Clearance in Sprague-Dawley rat at 2 mg/kg,iv measured upto 24 hrs by LC-MS/MS analysis", "format": "ADME, organism-based", "settings": "in vivo"}, "[15]": {"tested_on": "Mus musculus", "assay": "Antialzheimer activity in okadaic acid-induced cognitive impairment C57BL/6 mouse assessed as reduction in nerve damage in hippocampal DG region at 10 to 30 mg/kg,po once daily for 2 weeks by Nissl staining based microscopy", "format": "functional, organism-based", "settings": "dose 10-30 mg/kg"}, "[16]": {"assay": "MRT (0 to t) in Sprague-Dawley rat at 2 mg/kg,iv measured upto 24 hrs by LC-MS/MS analysis", "format": "ADME, organism-based", "settings": "in vivo"}, "[17]": {"assay": "Acute toxicity in C57BL/6 mouse assessed as histopathological change in kidney at 500 mg/kg,po observed after 14 days by hematoxylin-eosin staining based analysis", "format": "organism-based", "settings": "in vivo, 336 h, time 14 day"}, "[18]": {"assay": "Acute toxicity in C57BL/6 mouse assessed as change in heart weight at 500 mg/kg,po observed after 14 days", "format": "organism-based", "settings": "in vivo, 336 h, time 14 day"}, "[19]": {"target": "CYP3A4 (Homo sapiens, UniProt P08684)", "sequence (P08684 whole entry)": "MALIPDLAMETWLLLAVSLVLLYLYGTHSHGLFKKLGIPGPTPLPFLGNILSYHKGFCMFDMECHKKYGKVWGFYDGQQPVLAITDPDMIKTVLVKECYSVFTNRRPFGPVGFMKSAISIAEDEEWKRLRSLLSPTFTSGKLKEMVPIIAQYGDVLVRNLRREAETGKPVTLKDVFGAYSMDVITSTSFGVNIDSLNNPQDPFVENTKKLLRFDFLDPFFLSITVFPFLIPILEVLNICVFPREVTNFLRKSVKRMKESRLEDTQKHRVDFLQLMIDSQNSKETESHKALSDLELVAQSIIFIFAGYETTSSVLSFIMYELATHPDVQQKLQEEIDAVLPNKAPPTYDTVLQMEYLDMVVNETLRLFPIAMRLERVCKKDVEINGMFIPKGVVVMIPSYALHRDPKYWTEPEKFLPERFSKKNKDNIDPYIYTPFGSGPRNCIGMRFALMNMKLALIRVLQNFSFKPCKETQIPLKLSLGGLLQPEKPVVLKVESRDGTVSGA", "assay": "Inhibition of CYP3A4 in human liver microsomes using testosterone as substrate at 10 uM preincubated for 10 mins followed by NADPH addition and measured after 40 mins by LC-MS/MS analysis relative to control", "format": "ADME, Microsome", "settings": "probe testosterone, time 50 min"}, "[20]": {"tested_on": "Mus musculus", "assay": "Antialzheimer activity in okadaic acid-induced cognitive impairment C57BL/6 mouse assessed as reduction in nerve damage in hippocampal CA1 region at 10 to 30 mg/kg,po once daily for 2 weeks by Nissl staining based microscopy", "format": "functional, organism-based", "settings": "dose 10-30 mg/kg"}, "[21]": {"assay": "Apparent permeability across basolateral to apical side in dog MDCK-MDR1 cells at 5 uM incubated for 90 mins by LC-MS/MS analysis", "format": "ADME, cell-based, Canis lupus familiaris"}, "[22]": {"target": "Dual specificity tyrosine-phosphorylation-regulated kinase 2 (Homo sapiens, UniProt Q92630)", "sequence (Q92630 whole entry)": "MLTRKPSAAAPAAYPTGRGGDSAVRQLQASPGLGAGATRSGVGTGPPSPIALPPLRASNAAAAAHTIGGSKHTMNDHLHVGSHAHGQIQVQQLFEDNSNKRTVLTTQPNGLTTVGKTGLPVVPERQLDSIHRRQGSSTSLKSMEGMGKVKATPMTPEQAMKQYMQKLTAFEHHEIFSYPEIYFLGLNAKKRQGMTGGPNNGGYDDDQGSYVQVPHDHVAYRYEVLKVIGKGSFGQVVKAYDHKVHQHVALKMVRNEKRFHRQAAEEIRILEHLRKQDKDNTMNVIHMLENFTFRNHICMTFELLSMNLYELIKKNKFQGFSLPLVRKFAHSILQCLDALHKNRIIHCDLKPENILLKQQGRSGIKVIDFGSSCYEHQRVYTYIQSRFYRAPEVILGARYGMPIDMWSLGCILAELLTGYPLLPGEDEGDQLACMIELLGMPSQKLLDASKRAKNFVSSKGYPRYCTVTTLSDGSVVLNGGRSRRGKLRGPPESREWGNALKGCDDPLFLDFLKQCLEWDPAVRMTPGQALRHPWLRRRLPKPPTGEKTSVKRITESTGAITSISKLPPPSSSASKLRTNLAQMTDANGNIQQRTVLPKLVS", "assay": "Inhibition of DYRK2 (unknown origin) preincubated with enzyme for 10 mins followed by substrate and ATP addition measured after 60 mins by ADP-Glo reagent based assay"}, "[23]": {"assay": "Drug concentration in Sprague-Dawley rat plasma at 10 mg/kg,po measured after 2 hrs by LC-MS/MS analysis", "format": "ADME, organism-based"}, "[24]": {"assay": "Acute toxicity in C57BL/6 mouse assessed as histopathological change in spleen at 500 mg/kg,po observed after 14 days by hematoxylin-eosin staining based analysis", "format": "organism-based", "settings": "in vivo, 336 h, time 14 day"}},
  "note": "Activity calls are given as the source filed them. The rule behind the calls is not given here.",
  "data": [
    {"smiles": "Cc1ccc2c(-c3ccc4ncnc(N[C@H](CO)c5ccccc5)c4c3)c[nH]c2n1", "values": [
      {"measurement": "inhibition at 40 min, 10 µM", "setting": "[1]", "result": 0.07, "unit": "%"},
      {"measurement": "concentration at 4 h", "setting": "[2]", "result": 39.1, "unit": "ng/g"},
      {"measurement": "concentration at 6 h", "setting": "[3]", "result": 118, "unit": "ng/mL"},
      {"measurement": "Activity", "setting": "[4]", "result": "Non-Toxic"},
      {"measurement": "Activity", "setting": "[5]", "result": "Non-Toxic"},
      {"measurement": "Vd", "setting": "[6]", "result": 5.82, "unit": "L/kg"},
      {"measurement": "Activity", "setting": "[7]", "result": "Active"},
      {"measurement": "IC50", "setting": "[8]", "result": 38.9, "unit": "nM"},
      {"measurement": "Activity", "setting": "[9]", "result": "Non-Toxic"},
      {"measurement": "Activity", "setting": "[10]", "result": "Non-Toxic"},
      {"measurement": "IC50", "setting": "[11]", "result": 1.68, "unit": "nM"},
      {"measurement": "Activity", "setting": "[12]", "result": "Active"},
      {"measurement": "Activity", "setting": "[13]", "result": "Non-Toxic"},
      {"measurement": "clearance", "setting": "[14]", "result": 23.7, "unit": "mL/min/kg"},
      {"measurement": "Activity", "setting": "[15]", "result": "Active"},
      {"measurement": "MRT last at 24 h", "setting": "[16]", "result": 3.81, "unit": "h"},
      {"measurement": "Activity", "setting": "[17]", "result": "Non-Toxic"},
      {"measurement": "Activity", "setting": "[18]", "result": "Non-Toxic"},
      {"measurement": "inhibition at 40 min, 10 µM", "setting": "[19]", "result": 63.3, "unit": "%"},
      {"measurement": "Activity", "setting": "[20]", "result": "Active"},
      {"measurement": "Papp B→A at […], 5 µM", "setting": "[21]", "result": 30.6, "unit": "×10⁻⁶ cm/s"},
      {"measurement": "IC50", "setting": "[22]", "result": 14.2, "unit": "nM"},
      {"measurement": "concentration at 2 h", "setting": "[23]", "result": 141, "unit": "ng/mL"},
      {"measurement": "Activity", "setting": "[24]", "result": "Non-Toxic"}
    ]}
  ]
}
